According to the CheMixHub viscosity set:
“And” between values parts separate entries of the source, which are not always exact repeats. Equal entries are not always repeated.

Assay: xn = mol fraction of the nth substance listed

C1COCO1 + CO
303.15 K, 101 kPa
Conditions	viscosity [mPa·s]
x1 = 0.04585	0.5056
x1 = 0.09758	0.5088
x1 = 0.1564	0.516
x1 = 0.2238	0.5272
x1 = 0.3019	0.5382
x1 = 0.3935	0.5516
x1 = 0.5023	0.5642
x1 = 0.6337	0.5454
x1 = 0.7956	0.5446

CN(C)P(=O)(N(C)C)N(C)C + CO
303.15 K, 101.3 kPa
Conditions	viscosity [mPa·s]
x1 = 0.0993	0.829
x1 = 0.2036	1.145
x1 = 0.2984	1.401
x1 = 0.3941	1.63
x1 = 0.4882	1.846
x1 = 0.5898	2.07
x1 = 0.6978	2.308
x1 = 0.778	2.476
x1 = 0.8966	2.722

Cc1cccc(C)n1 + CO
101 kPa
Conditions	viscosity [mPa·s]
298.01 K, x1 = 0.1115	0.705
298.12 K, x1 = 0.2763	0.857
298.18 K, x1 = 0.4001	0.912
298.18 K, x1 = 0.5482	0.909
298.19 K, x1 = 0.8449	0.846
298.24 K, x1 = 0.2399	0.823
298.29 K, x1 = 0.7013	0.891
303.08 K, x1 = 0.1115	0.655
303.15 K, x1 = 0.8449	0.789
303.17 K, x1 = 0.2763	0.793
303.21 K, x1 = 0.2399	0.763
303.21 K, x1 = 0.4001	0.85
303.24 K, x1 = 0.7013	0.828
303.25 K, x1 = 0.5482	0.84
308.08 K, x1 = 0.1115	0.613
308.18 K, x1 = 0.8449	0.737
308.19 K, x1 = 0.2763	0.739
308.24 K, x1 = 0.5482	0.782
308.25 K, x1 = 0.2399	0.71
308.26 K, x1 = 0.7013	0.774
312.95 K, x1 = 0.2399	0.662
313.15 K, x1 = 0.1115	0.572
313.22 K, x1 = 0.8449	0.691
313.25 K, x1 = 0.2763	0.688
313.27 K, x1 = 0.4001	0.729
313.33 K, x1 = 0.7013	0.725
318.22 K, x1 = 0.1115	0.535
318.28 K, x1 = 0.8449	0.65
318.32 K, x1 = 0.2399	0.617
318.33 K, x1 = 0.2763	0.643
318.33 K, x1 = 0.4001	0.682
318.35 K, x1 = 0.5482	0.688
318.38 K, x1 = 0.7013	0.68

CC(=O)c1ccccc1 + COC(=O)c1ccccc1
viscosity [mPa·s], 101 kPa
Conditions	x2 = 0.0946	x2 = 0.1898	x2 = 0.2861	x2 = 0.386	x2 = 0.4823	x2 = 0.5819	x2 = 0.6825	x2 = 0.7877	x2 = 0.8917
303.15 K	1.527	1.558	1.588	1.611	1.608	1.606	1.6	1.593	1.614
313.15 K	1.285	1.307	1.329	1.348	1.341	1.334	1.322	1.315	1.329

CCC(C)C(C)C (configuration not stated) + COC(C)(C)C
298.15 K, 101.33 kPa
Conditions	viscosity [mPa·s]
x2 = 0.0983	0.3824
x2 = 0.1999	0.3758
x2 = 0.2986	0.3693
x2 = 0.3972	0.363
x2 = 0.4975	0.3572
x2 = 0.5979	0.3519
x2 = 0.7006	0.3469
x2 = 0.797	0.3423
x2 = 0.8949	0.3387

C1COCO1 + COCCO
298.15 K, 101 kPa
Conditions	viscosity [mPa·s]
x1 = 0.1024	1.345
x1 = 0.2043	1.171
x1 = 0.3057	1.032
x1 = 0.4065	0.9197
x1 = 0.5067	0.8293
x1 = 0.6064	0.7564
x1 = 0.7056	0.6979
x1 = 0.8043	0.6517
x1 = 0.9024	0.6155

CCC(O)CC + COc1ccccc1
viscosity [mPa·s], 101.33 kPa
Conditions	x2 = 0.1007	x2 = 0.2006	x2 = 0.3001	x2 = 0.3996	x2 = 0.5	x2 = 0.5999	x2 = 0.6973	x2 = 0.7998	x2 = 0.8971
303.15 K	2.787	2.043	1.547	1.238	1.062	0.976	0.941	0.927	0.917
313.15 K	1.745	1.355	1.093	0.938	0.863	0.835	0.824	0.811	0.793
323.15 K	1.261	1.041	0.888	0.795	0.747	0.729	0.719	0.709	0.697

O=S(Cl)Cl + Cc1cc(C)cc(C)c1
298.15 K, 101 kPa
Conditions	viscosity [mPa·s]
x1 = 0.234	0.685
x1 = 0.314	0.6908
x1 = 0.432	0.6952
x1 = 0.571	0.6939
x1 = 0.743	0.677
x1 = 0.9	0.6495

CCCCCCCC/C=C\CCCCCCCC(=O)OCC(COC(=O)CCCCCCC/C=C\CCCCCCCC)OC(=O)CCCCCCC/C=C\CCCCCCCC + Cc1ccc(C)cc1
viscosity [mPa·s], 101.33 kPa
Conditions	293.15 K	298.15 K	303.15 K	308.15 K	313.15 K
x1 = 0.000755	0.6573	0.6175	0.5813	0.5465	0.5168
x1 = 0.001496	0.6699	0.6292	0.5923	0.5567	0.5261
x1 = 0.004118	0.7209	0.6762	0.6359	0.5968	0.5636
x1 = 0.007318	0.7825	0.7329	0.6883	0.6454	0.609
x1 = 0.01139	0.8597	0.8042	0.7541	0.706	0.665
x1 = 0.01526	0.9594	0.8955	0.8379	0.7833	0.7368
x1 = 0.02469	1.185	1.101	1.027	0.9558	0.8959
x1 = 0.02908	1.291	1.197	1.115	1.037	0.9704
x1 = 0.03513	1.421	1.316	1.222	1.134	1.06
x1 = 0.04678	1.777	1.637	1.513	1.399	1.302
x1 = 0.06075	2.241	2.061	1.885	1.733	1.605

CC(=O)c1ccccc1 + Cc1ccccc1
viscosity, 101 kPa
Conditions	x2 = 0.1093	x2 = 0.2145	x2 = 0.3206	x2 = 0.4281	x2 = 0.5229	x2 = 0.6213	x2 = 0.7157	x2 = 0.8392	x2 = 0.9074
298.15 K	1.561 mPa·s and 1.561 mPa·s	1.446 mPa·s and 1.446 mPa·s	1.329 mPa·s and 1.329 mPa·s	1.211 mPa·s and 1.211 mPa·s	1.105 mPa·s and 1.105 mPa·s	0.9949 mPa·s and 0.9949 mPa·s	0.8879 mPa·s and 0.8879 mPa·s	0.7472 mPa·s and 0.7472 mPa·s	0.6694 mPa·s and 0.6694 mPa·s
303.15 K	1.426 mPa·s and 1.426 mPa·s	1.323 mPa·s and 1.323 mPa·s	1.218 mPa·s and 1.218 mPa·s	1.112 mPa·s and 1.112 mPa·s	1.018 mPa·s and 1.018 mPa·s	0.9188 mPa·s and 0.9188 mPa·s	0.8233 mPa·s and 0.8233 mPa·s	0.6978 mPa·s and 0.6978 mPa·s	0.6286 mPa·s and 0.6286 mPa·s
308.15 K	1.31 mPa·s and 1.31 mPa·s	1.217 mPa·s and 1.217 mPa·s	1.123 mPa·s and 1.123 mPa·s	1.027 mPa·s and 1.027 mPa·s	0.9425 mPa·s and 0.9425 mPa·s	0.8535 mPa·s and 0.8535 mPa·s	0.7678 mPa·s and 0.7678 mPa·s	0.6554 mPa·s and 0.6554 mPa·s	0.5933 mPa·s and 0.5933 mPa·s

CCC(O)CC + Cc1ccccc1
viscosity [mPa·s], 101 kPa
Conditions	x1 = 0.1	x1 = 0.1999	x1 = 0.2999	x1 = 0.4	x1 = 0.4999	x1 = 0.6	x1 = 0.6999	x1 = 0.8	x1 = 0.9001
303.15 K	0.5369	0.57	0.6172	0.6865	0.7794	0.9264	1.142	1.52	2.12
308.15 K	0.5072	0.5352	0.5765	0.6364	0.7145	0.8369	1.015	1.313	1.767
313.15 K	0.4793	0.5027	0.5395	0.5918	0.658	0.7604	0.9062	1.147	1.493
318.15 K	0.4555	0.4739	0.5062	0.5515	0.6092	0.6951	0.8461	1.013	1.285
323.15 K	0.433	0.4499	0.4765	0.5154	0.5649	0.6384	0.7404	0.9004	1.112

CCCCCCCC/C=C\CCCCCCCC(=O)OCC(COC(=O)CCCCCCC/C=C\CCCCCCCC)OC(=O)CCCCCCC/C=C\CCCCCCCC + Cc1ccccc1
viscosity [mPa·s], 101.33 kPa
Conditions	x1 = 0.000651	x1 = 0.001141	x1 = 0.003237	x1 = 0.006694	x1 = 0.009965	x1 = 0.015	x1 = 0.01736	x1 = 0.02174	x1 = 0.03032	x1 = 0.04061
293.15 K	0.6007	0.6111	0.6517	0.7201	0.7951	0.9362	0.971	1.073	1.306	1.616
298.15 K	0.5652	0.5749	0.6124	0.6756	0.7447	0.8679	0.9064	0.9993	1.212	1.493
303.15 K	0.5329	0.5419	0.5768	0.6355	0.6992	0.8126	0.8482	0.9337	1.129	1.385
308.15 K	0.5016	0.5101	0.5425	0.5965	0.6557	0.7602	0.793	0.871	1.051	1.284
313.15 K	0.4748	0.4827	0.513	0.5635	0.6185	0.7155	0.7459	0.8182	0.9851	1.198

O=S(Cl)Cl + Cc1ccccc1
298.15 K, 101 kPa
Conditions	viscosity [mPa·s]
x1 = 0.261	0.5832
x1 = 0.426	0.6019
x1 = 0.559	0.6139
x1 = 0.72	0.6223
x1 = 0.802	0.625
x1 = 0.923	0.6236

CCCCCCCC/C=C\CCCCCCCC(=O)OCC(COC(=O)CCCCCCC/C=C\CCCCCCCC)OC(=O)CCCCCCC/C=C\CCCCCCCC + ClC(Cl)Cl
viscosity [mPa·s], 101.33 kPa
Conditions	x1 = 0.000728	x1 = 0.000907	x1 = 0.00244	x1 = 0.004913	x1 = 0.007824	x1 = 0.01322	x1 = 0.01672	x1 = 0.03078
293.15 K	0.5839	0.5875	0.6352	0.695	0.8133	1.032	1.109	1.733
298.15 K	0.5545	0.5581	0.603	0.6576	0.7684	0.9701	1.042	1.585
303.15 K	0.5275	0.5306	0.5725	0.6237	0.727	0.9137	0.9804	1.474
